# Laboratory results: EP2829536A1, “4-Nitro-5-dichloromethylpyrazol derivatives for the treatment of infectious diseases” (priority 2013, dated 2015)
# Entries after “also recorded” stand apart in the source; their conditions may differ. Where two headings read alike, the source gives them in different places.
# Columns and labels:
# [1] = system: M. tuberculosis H37Rv; assay: Minimal inhibitory concentration by resazurin microtiter assay (REMA); format: cell-based; details: Mycobacterium tuberculosis, 168 h, 7 days incubation, read-out: (MIC) against M. tuberculosis H37Rv
# [2] = system: L929 cell line; assay: MTT assay, effect on proliferation (5 days); format: cell-based; details: Mus musculus, L929, 120 h
# [3] = system: L929 cell line; assay: MTT assay, acute toxic effect (24 h); format: cell-based; details: Mus musculus, L929, 24 h; 1 day (acute toxic effect)
# [4] = system: M. bovis BCG; format: cell-based
# [5] = Hepatic microsomal stability; format: in vitro ADME, mice
# [6] = system: H37Rv Pasteur M. tuberculosis strain; assay: Effectivity in mice infected with M. tuberculosis (bacillary load in lung and spleen); format: in vivo; details: for p (Lungs) / p (Spleen): vs sham
# Procedure: Lx079 as well as two other components, Lx059 which is 10% DMSO in PBS buffer and Lx069 which is a combination of ethambutol (0.8 mg/ml) and myxopyronine (0.2 mg/ml), were tested for drug effectivity in mice. Two controls were included in the study (sham, non treated; and treated with Isoniazide (INH, 25 mg/kg).
# The animals were infected at time point 0 with M. tuberculosis through an airborne infection apparatus (Glas-col Inc., Terre Haute, IN, USA) for infection with a low dose of H37Rv Pasteur M. tuberculosis strain. Nebulization provided an approximate uptake of 20-50 bacilli by mice lungs. The treatments and controls results were processed blindly. The experiment was run including 10 C57BL/6 mice per group. A volume of 0.2mL of each treatment was administered orally every day for 5 days, on week 2 post infection.
# Mice were euthanized on week 3 with isoflurane (inhalation excess), and lung and spleen samples removed to and mechanically disrupted in order to obtain tissue homogenates to be plated cultured in Becton Dickinson 7H11 Middlebrook agar (Bennex Ltd, Shannon, Ireland) and incubated at 37 °C. Viable bacteria (Colony Forming Units, CFUs) were counted four weeks after, data being recorded as the log of the number of CFUs recovered per organ. The results of the different groups were represented graphically, compared and evaluated for statistically significant differences (non parametric comparison between each candidate and each control, Mann Whitney test), with the differences being considered significant at P≤0.05 (Graphpad software).
# The effect on the bacillary load of each candidate results have been logarithmically represented as CFU/mL in the graphs attached. The lung and spleen results of each candidate and controls evaluated have been represented together (as box and whiskers, 5-95 percentiles plotted) and also per candidate with sham (results of each mouse and median and standard deviation plotted). Statistically significant differences (p<0.05) are marked with * if existing between the evaluated group and sham.
# [7] = system: M. bovis BCG; assay: microbe, parasite or virus in culture; format: cell-based; details: Mycobacterium tuberculosis variant bovis BCG
# [8] = system: PtK2 cells; assay: Effect on cell morphology / endoplasmic reticulum by immunocytochemistry (ICC); format: cell-based, rat kangaroo; details: for morphological effect / ER stress: PtK2 cells, overnight
# Procedure: Cell lines and media: Cells were grown at 37°C and 5% CO2 in the following media supplemented with 10 % FBS(Gibco): • L-929 cells (mouse connective tissue fibroblast: Dulbecco's modified Eagle's medium (DMEM), Lonza • PtK2 cells (rat kangaroo kidney epithelial cells): Minimum Essential Medium (MEM) medium, supplemented with 1 % non-essential amino acids and 1 % glutamax, Invitrogen.
# The effects of the tested compounds on cell proliferation and the acute toxic effects were assayed in vitro on L929 cell line. The metabolic activity was measured by means of (MTT, (3-(4,5-Dimethylthiazol-2-yl)-2,5-diphenyltetrazolium bromide) cell survival colorimetric assay. Effect on proliferation: 60 µl of serial dilutions of the test compounds were added to 120 µl aliquots of a cell suspension (50,000 cells/ml) in 96-well microplates then incubated 5 days at 37°C and 5% CO2. 20 µl MTT dye were added to a final concentration of 0.5 mg/ml. After 2 h the precipitate of formazan crystals was centrifuged, and the supernatant discarded. After washing with PBS, the precipitate was dissolved in 100 µl of acidified propanol. The plates were stirred for 20 minutes and the optical density of the resulting color was measured at 590 nm. Acute toxic effect: It was investigated by plating 120 µl aliquots of a cell suspension (100,000-200,000 cells/ml) in 96-well microplates. The cells were incubated at 37°C and 5% CO2 and allowed to grow for two days to stop the cell propagation. Then 60 µl of serial dilutions of the test compounds were added and incubated for further 24h. Then the MTT assay was performed as described before. Results were expressed as the percentage of cellular viability in comparison to cells that were treated only with the vehicle. The IC50 values were determined as the concentrations at which cells developed 50% of the absorbance of untreated control cells as estimated from the dose-response curves of two parallel experiments. Immunofluorescence staining: The effects of substances on the phenotypical changes of cell shape and adhesion were investigatedin the potoroo (PtK2) cells after staining of the nucleus and the endoplasmic reticulum (ER). PtK2 cells were grown on cover slips in 4-well plates. semi-confluent cells were treated with test compounds and the plates were incubated over the night. The cells were fixed with cold methanol /acetone (1:1) for 10 min. Then the cells were washed with PBS and the primary antibody (anti GRP-94, thermoscientific) was added and incubated for 45 min and washed with PBS. Secondary antibody (Alexaflour goat anti-rat 488, Invitrogen) was then added to the cells and incubated for additional 45 min. Cells were washed with PBS and Cover slips were mounted in anti-fade mounting medium with DAPI (Invitrogen). Images were taken with a CCD camera attached to a fluorescence microscope.
# The effects of substances on the phenotypical changes of cell shape and adhesion were investigated by the technique of immunocytochemistry (ICC). The endoplasmic reticulum (ER) was investigated upon treatment of the potoroo cells (PtK2) cells with/without test compounds.
# PtK2 cells were grown on cover slips in 4-well plates. semi-confluent cells were treated with test compounds and the plates were incubated over the night. The cells were fixed with cold methanol /acetone for 10 min. Then the cells were washed with PBS and the primary antibody (anti GRP-94, thermoscientific) was added and incubated for 45 min and washed with PBS. […]
# [9] = mouse, in vivo
# [10] = female, C57/BL6, mouse, in vivo; for F (bioavailability): po
# Excerpt: (§1) Mice were weighed and checked according to the protocols and observation data sheets that were requested. Animals were followed for weight loss, apparent good health (bristled hair and wounded skin) and behaviour (signs of aggressiveness or isolation). Animals: Young adult (6-8 weeks old) female C57/BL6 mice, 20 mice for acute oral toxicity testing and 81 mice for PK experiment were used. The animals were nulliparous and non-pregnant weighing 20 ±1.5 g each. They were maintained in their cages provided with a standard laboratory rodent diet and unlimited supply of drinking water and were allowed to acclimatize to the laboratory conditions for seven days before starting the experiments. The temperature in the experimental animal room was kept at 22°C ± 3°C and the relative humidity was 50 ± 20 %. Lighting was artificial with the sequence 12 hours light and 12 hours dark. Substance formulation for in vivo model: Doses were prepared in 5% DMSO in sterile water for oral dosing through oral gavage at a dose volume of 0.3 ml, and in 5% DMSO in PBS, pH 7.4 for IV bolus injection via tail vein at a dose volume 0.1 ml.
# (§2) The animals were divided into one IV group (27 mice), 2 oral groups (24 mice each), control IV group (3 mice) and control oral group (3 mice). The IV group and one oral group were dosed with 12.5 mg/kg and the other oral group was dosed with 25 mg/kg, while the control groups received the vehicle. All blood samples were collected at 15 and 30 min and 1, 2, 4, 6, 8, and 24 h after oral dosing, and at 5, 15, and 30 min and 1, 2, 4, 6, 8, and 24 h following intravenous administration. The blood was collected from the control groups at 24 h. Mice were euthanized with isoflurane and a 0.3 mL aliquot of blood was collected via terminal bleed from three mice at each time point. Blood samples were collected in heparin as anticoagulant and plasma was harvested by centrifugation at 10,000 rpm for 2 minutes. Plasma samples were kept at -80 °C until analysis.
# [11] = in vivo; details: female, C57/BL6, mouse; for bioavailability: F (bioavailability)
# Excerpt: as §1, §2
# [12] = Acute oral toxicity in mice; details: for No. of dead mice: 5 mice, 14 days; for % Cumulative of dead mice: Reed-Muench method
# [13] = dose group Lx079-1 (dose not given)
# [14] = dose group Lx079-2 (dose not given)
# [15] = dose group Lx079-3 (dose not given)
# [16] = dose group Lx079-4 (dose not given)
# [17] = dose group Lx079-5 (dose not given)
# [18] = dose group Lx079-6 (dose not given)
smiles,measurement,setting,value
"CNCCOc1nn(-c2c(Cl)cc(Cl)cc2Cl)c(C(Cl)Cl)c1[N+](=O)[O-].Cl [LX079, 2-((5-(Dichloromethyl)-4-nitro-1-(2,4,6-trichlorophenyl)-1H-pyrazol-3-yl)oxy)-N-methylethanaminium chloride]",MIC,[1],0.18 µg/mL
same,IC50,[2],2.2 µg/mL
same,IC50,[3],5.5 µg/mL
same,decrease of log CFU,"[4]; 2 µg/ml, 72 hours, in comparison to the untreated controls",around 2 log CFU
same,intracellular activity against M. bovis BCG,"[4]; infected macrophage model, Fig. 1",significant intracellular activity
same,t1/2 (in vitro),"[5]; 1 µM, mice microsomes 0.5 mg/mL, NADPH, 37 °C",5.937 ± 2.36 min
same,half-life at 1 µM,"[5]; mouse, pooled liver microsomes, pH 7.4, 1 µM, mice microsomes 0.5 mg/mL, NADPH, 37 °C, read-out: t1/2 (in vitro)",5.94 ± 2.36 min
same,microsomal CLint at 1 µM,"[5]; mouse, pooled mouse liver microsomes, pH 7.4, mice microsomes, corrected for binding to microsomes, read-out: CLint, inc",2820 ± 1120 µL/min/mg
same,CLint (hepatic intrinsic clearance),"[5]; scaled up from the in vitro t1/2, SMW: standard mouse weight",221.81± 88.23 ml/min/SMW
same,effect on the bacillary load in lungs and spleen compared to sham,"[6]; C57BL/6 mice, oral, every day for 5 days on week 2 post infection",decrease the bacillary load in both in lungs and spleen; also recorded: clear positive inhibitory effect on the survival of the TB pathogen
same,p (Lungs),[6]; [13],0.0032
same,p (Spleen),[6]; [13],0.0009
same,p (Lungs),[6]; [14],0.0002
same,p (Spleen),[6]; [14],0.0343
same,p (Lungs),[6]; [15],0.0010
same,p (Spleen),[6]; [15],0.0002
same,p (Lungs),[6]; [16],0.0004
same,p (Spleen),[6]; [16],0.0117
same,p (Lungs),[6]; [17],0.0002
same,p (Spleen),[6]; [17],0.0164
same,p (Lungs),[6]; [18],0.0002
same,p (Spleen),[6]; [18],0.0031
same,MIC,[7],0.6 µg/mL
same,morphological effect / ER stress,[8]; 5µg/ml,did not produce morphological abnormalities
same,morphological effect / ER stress,[8]; 6.6 µg/ml,induced massive ER stress
same,morphological changes of the treated cells after immunofluorescence staining,[8]; concentration 25 times higher than the MIC,no morphological changes
same,"microscopic examination of liver, spleen, lungs, and kidneys",[9],No pathological abnormalities were detected
same,C0,"[10]; iv, 12.5 mg/kg",660 ± 70 ng/mL
same,CL,"[10]; iv, 12.5 mg/kg",394 ± 20.3 mL/min/kg
same,K (elimination rate constant),"[10]; iv, 12.5 mg/kg",1.79 ± 0.44
same,t1/2,"[10]; iv, 12.5 mg/kg",25.8 min
same,time in which the plasma concentration was exceeding the in vitro MIC (T > MIC),"[10]; iv, 12.5 mg/kg",less than 1 hour
same,F (bioavailability),[10]; 12.5 mg/kg,27.583 ± 2.457%
same,F (bioavailability),[10]; 25 mg/kg,32.662 ± 7.715%
same,AUC,"[11]; iv, 12.5 mg/kg",530 ± 30 ng·h/mL
same,C0,"[11]; iv, 12.5 mg/kg",660 ± 70 ng/mL
same,clearance,"[11]; iv, 12.5 mg/kg",394 mL/min/kg
same,half-life,"[11]; iv, 12.5 mg/kg",25.8 ± 16.2 min
same,AUC,"[11]; po, 12.5 mg/kg",150 ± 20 ng·h/mL
same,bioavailability,"[11]; po, 12.5 mg/kg",27.6 ± 2.46%
same,AUC,"[11]; po, 25 mg/kg",350 ± 70 ng·h/mL
same,bioavailability,"[11]; po, 25 mg/kg",32.7 ± 7.72%
same,No. of dead mice,[12]; 62.5 mg/kg single oral dose,0
same,% Cumulative of dead mice,[12]; 62.5 mg/kg single oral dose,0%
same,No. of dead mice,[12]; 125 mg/kg single oral dose,2
same,% Cumulative of dead mice,[12]; 125 mg/kg single oral dose,22%
same,No. of dead mice,[12]; 250 mg/kg single oral dose,1
same,% Cumulative of dead mice,[12]; 250 mg/kg single oral dose,42.85%
same,LD50 at 14 days,"[12]; female, C57/BL6, mouse, in vivo, po",> 250 mg/kg
"CCNCCOc1nn(-c2c(Cl)cc(Cl)cc2Cl)c(C(Cl)Cl)c1[N+](=O)[O-].Cl [Lx089, 2-((5-(Dichloromethyl)-4-nitro-1-(2,4,6-trichlorophenyl)-1H-pyrazol-3-yl)oxy)-N-ethylethanaminium chloride]",MIC,[7],0.781 µg/mL
"CNCCOc1nn(-c2c(Cl)cc(C(F)(F)F)cc2Cl)c(C(Cl)Cl)c1[N+](=O)[O-].Cl [Lx088, 2-((1-(2,6-Dichloro-4-(trifluoromethyl)phenyl)-5-(dichloromethyl)-4-nitro-1H-pyrazol-3-yl)oxy)-N-methylethanaminium chloride]",MIC,[7],0.781 µg/mL
same,morphological effect / ER stress,[8]; 6.6 µg/ml,produced less ER stress
same,morphological effect / ER stress,[8]; 13.3 µg/ml,induced massive ER stress
